Source: US20230301300A1, “HERBICIDAL COMPOSITIONS” (SYNGENTA CROP PROTECTION AG, priority 2020, published 2023)

Assays:
Assay in all cases: B2 Post-Emergence Efficacy - Test 2
Assay type in all cases: in vivo
[1] = test system: Panicum miliaceum (PANMI); conditions: 15 days after application, 0=no damage, 100=total kill
Outline: (§1)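 Post-emergence spray, 12-day-old potted plants; IF50 formulation in water + Genapol X080 0.2% v/v. Glasshouse 24/18 or 20/16 °C, 16 h light, 65% RH, watered twice daily. Rating at 15 DAA, 0 = no damage, 100 = total kill.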

[2] = test system: Euphorbia hetrophylla (EPHHL); conditions: 15 days after application, 0-100 scale
Outline: as §1

[3] = test system: Xanthium strumarium (XANST); conditions: 15 days after application, 0-100 scale
Outline: as §1

[4] = test system: Triticum aestivum (TRZAW); conditions: 15 days after application, 0-100 scale
Outline: as §1

[5] = test system: Kochia scoparia (KSHSC); conditions: 15 days after application, 0-100 scale
Outline: as §1

[6] = test system: Chenopodium album (CHEAL); conditions: 15 days after application, 0-100 scale
Outline: as §1

[7] = test system: Brassica napus (BRSNN); conditions: 15 days after application, 0-100 scale
Outline: as §1

[8] = test system: Bidens pilosa (BIDPI); conditions: 15 days after application, 0-100 scale
Outline: as §1

[9] = test system: Sinapis arvensis (SINAR); conditions: 15 days after application, 0-100 scale
Outline: as §1

[10] = test system: Stellaria media (STEME); conditions: 15 days after application, 0-100 scale
Outline: as §1

[11] = test system: Avena fatua (AVEFA); conditions: 15 days after application, 0-100 scale
Outline: as §1

[12] = test system: Brachiaria plantaginea (BRAPL); conditions: 15 days after application, 0=no damage, 100=total kill
Outline: as §1

[13] = test system: Poa annua (POAAN); conditions: 15 days after application, 0-100 scale
Outline: as §1

[14] = test system: Galium aparine (GALAP); conditions: 15 days after application, 0-100 scale
Outline: as §1

[15] = test system: Digitaria sanguinalis (DIGSA); conditions: 15 days after application, 0=no damage, 100=total kill
Outline: as §1

[16] = test system: Orysa sativa (ORYSA); conditions: 15 days after application; for Herbicidal activity ORYSA: 0-100 scale; for Herbicidal activity on a 0-100 scale, ORYSA: 0=no damage, 100=total kill
Outline: as §1

[17] = test system: Sorghum bicolour (SORVU); conditions: 15 days after application, 0=no damage, 100=total kill
Outline: as §1

[18] = test system: Ipomoea hederacea (IPOHE); conditions: 15 days after application, 0-100 scale
Outline: as §1

Structure (SMILES): Cc1nn(C)c(=O)c(-c2c(F)ccc(Cl)c2CCc2ccccc2C(F)(F)F)c1O [Compound 1.066, 4-[3-chloro-6-fluoro-2-[2-[2-(trifluoromethyl)phenyl]ethyl]phenyl]-5-hydroxy-2,6-dimethyl-pyridazin-3-one]
- Herbicidal activity on a 0-100 scale, PANMI ([1]; 15 g/Ha): 0
- Herbicidal activity on a 0-100 scale, PANMI ([1]; 30 g/Ha): 50
- Herbicidal activity on a 0-100 scale, PANMI ([1]; 60 g/Ha): 60
- Herbicidal activity on a 0-100 scale, PANMI ([1]; 125 g/Ha): 80
- Herbicidal activity on a 0-100 scale, PANMI ([1]; 250 g/Ha): 100
- Herbicidal activity on a 0-100 scale, PANMI ([1]; 500 g/Ha): 100
- Herbicidal activity EPHHL ([2]; 15 g/Ha): 60
- Herbicidal activity EPHHL ([2]; 30 g/Ha): 70
- Herbicidal activity EPHHL ([2]; 60 g/Ha): 80
- Herbicidal activity EPHHL ([2]; 125 g/Ha): 90
- Herbicidal activity EPHHL ([2]; 250 g/Ha): 100
- Herbicidal activity EPHHL ([2]; 500 g/Ha): 100
- Herbicidal activity XANST ([3]; 60 g/Ha): 90
- Herbicidal activity XANST ([3]; 250 g/Ha): 100
- Herbicidal activity XANST ([3]; 500 g/Ha): 100
- Herbicidal activity TRZAW ([4]; 15 g/Ha): 0
- Herbicidal activity TRZAW ([4]; 30 g/Ha): 10
- Herbicidal activity TRZAW ([4]; 60 g/Ha): 40
- Herbicidal activity TRZAW ([4]; 125 g/Ha): 60
- Herbicidal activity TRZAW ([4]; 250 g/Ha): 70
- Herbicidal activity TRZAW ([4]; 500 g/Ha): 80
- Herbicidal activity KCHSC ([5]; 15 g/Ha): 0
- Herbicidal activity KCHSC ([5]; 30 g/Ha): 0
- Herbicidal activity KCHSC ([5]; 60 g/Ha): 0
- Herbicidal activity KCHSC ([5]; 125 g/Ha): 10
- Herbicidal activity KCHSC ([5]; 250 g/Ha): 20
- Herbicidal activity KCHSC ([5]; 500 g/Ha): 20
- Herbicidal activity CHEAL ([6]; 30 g/Ha): 90
- Herbicidal activity CHEAL ([6]; 60 g/Ha): 90
- Herbicidal activity CHEAL ([6]; 125 g/Ha): 90
- Herbicidal activity CHEAL ([6]; 250 g/Ha): 100
- Herbicidal activity CHEAL ([6]; 500 g/Ha): 100
- Herbicidal activity BRSNN ([7]; 15 g/Ha): 90
- Herbicidal activity BRSNN ([7]; 30 g/Ha): 90
- Herbicidal activity BRSNN ([7]; 60 g/Ha): 90
- Herbicidal activity BRSNN ([7]; 125 g/Ha): 90
- Herbicidal activity BRSNN ([7]; 250 g/Ha): 90
- Herbicidal activity BRSNN ([7]; 500 g/Ha): 90
- Herbicidal activity BIDPI ([8]; 15 g/Ha): 50
- Herbicidal activity BIDPI ([8]; 30 g/Ha): 60
- Herbicidal activity BIDPI ([8]; 60 g/Ha): 70
- Herbicidal activity BIDPI ([8]; 125 g/Ha): 80
- Herbicidal activity BIDPI ([8]; 250 g/Ha): 90
- Herbicidal activity BIDPI ([8]; 500 g/Ha): 90
- Herbicidal activity SINAR ([9]; 15 g/Ha): 60
- Herbicidal activity SINAR ([9]; 30 g/Ha): 60
- Herbicidal activity SINAR ([9]; 60 g/Ha): 80
- Herbicidal activity SINAR ([9]; 125 g/Ha): 90
- Herbicidal activity SINAR ([9]; 250 g/Ha): 90
- Herbicidal activity SINAR ([9]; 500 g/Ha): 90
- Herbicidal activity STEME ([10]; 15 g/Ha): 80
- Herbicidal activity STEME ([10]; 30 g/Ha): 60
- Herbicidal activity STEME ([10]; 60 g/Ha): 90
- Herbicidal activity STEME ([10]; 125 g/Ha): 90
- Herbicidal activity STEME ([10]; 250 g/Ha): 90
- Herbicidal activity STEME ([10]; 500 g/Ha): 100
- Herbicidal activity AVEFA ([11]; 15 g/Ha): 0
- Herbicidal activity AVEFA ([11]; 30 g/Ha): 20
- Herbicidal activity AVEFA ([11]; 60 g/Ha): 40
- Herbicidal activity AVEFA ([11]; 125 g/Ha): 90
- Herbicidal activity AVEFA ([11]; 250 g/Ha): 90
- Herbicidal activity AVEFA ([11]; 500 g/Ha): 90
- Herbicidal activity on a 0-100 scale, BRAPL ([12]; 15 g/Ha): 0
- Herbicidal activity on a 0-100 scale, BRAPL ([12]; 30 g/Ha): 60
- Herbicidal activity on a 0-100 scale, BRAPL ([12]; 125 g/Ha): 80
- Herbicidal activity on a 0-100 scale, BRAPL ([12]; 250 g/Ha): 70
- Herbicidal activity on a 0-100 scale, BRAPL ([12]; 500 g/Ha): 100
- Herbicidal activity POAAN ([13]; 15 g/Ha): 20
- Herbicidal activity POAAN ([13]; 30 g/Ha): 70
- Herbicidal activity POAAN ([13]; 60 g/Ha): 80
- Herbicidal activity POAAN ([13]; 125 g/Ha): 90
- Herbicidal activity POAAN ([13]; 250 g/Ha): 90
- Herbicidal activity POAAN ([13]; 500 g/Ha): 90
- Herbicidal activity GALAP ([14]; 15 g/Ha): 20
- Herbicidal activity GALAP ([14]; 30 g/Ha): 20
- Herbicidal activity GALAP ([14]; 60 g/Ha): 20
- Herbicidal activity GALAP ([14]; 125 g/Ha): 20
- Herbicidal activity GALAP ([14]; 250 g/Ha): 30
- Herbicidal activity GALAP ([14]; 500 g/Ha): 90
- Herbicidal activity on a 0-100 scale, DIGSA ([15]; 15 g/Ha): 0
- Herbicidal activity on a 0-100 scale, DIGSA ([15]; 30 g/Ha): 20
- Herbicidal activity on a 0-100 scale, DIGSA ([15]; 60 g/Ha): 20
- Herbicidal activity on a 0-100 scale, DIGSA ([15]; 125 g/Ha): 40
- Herbicidal activity on a 0-100 scale, DIGSA ([15]; 250 g/Ha): 70
- Herbicidal activity on a 0-100 scale, DIGSA ([15]; 500 g/Ha): 70
- Herbicidal activity ORYSA ([16]; 15 g/Ha): 0
- Herbicidal activity on a 0-100 scale, ORYSA ([16]; 15 g/Ha): 0
- Herbicidal activity ORYSA ([16]; 30 g/Ha): 0
- Herbicidal activity on a 0-100 scale, ORYSA ([16]; 30 g/Ha): 0
- Herbicidal activity ORYSA ([16]; 60 g/Ha): 0
- Herbicidal activity on a 0-100 scale, ORYSA ([16]; 60 g/Ha): 0
- Herbicidal activity ORYSA ([16]; 125 g/Ha): 10
- Herbicidal activity on a 0-100 scale, ORYSA ([16]; 125 g/Ha): 10
- Herbicidal activity ORYSA ([16]; 250 g/Ha): 20
- Herbicidal activity on a 0-100 scale, ORYSA ([16]; 250 g/Ha): 20
- Herbicidal activity ORYSA ([16]; 500 g/Ha): 40
- Herbicidal activity on a 0-100 scale, ORYSA ([16]; 500 g/Ha): 40
- Herbicidal activity on a 0-100 scale, SORVU ([17]; 15 g/Ha): 0
- Herbicidal activity on a 0-100 scale, SORVU ([17]; 30 g/Ha): 20
- Herbicidal activity on a 0-100 scale, SORVU ([17]; 60 g/Ha): 60
- Herbicidal activity on a 0-100 scale, SORVU ([17]; 125 g/Ha): 80
- Herbicidal activity on a 0-100 scale, SORVU ([17]; 250 g/Ha): 90
- Herbicidal activity on a 0-100 scale, SORVU ([17]; 500 g/Ha): 100
- Herbicidal activity IPOHE ([18]; 15 g/Ha): 70
- Herbicidal activity IPOHE ([18]; 30 g/Ha): 90
- Herbicidal activity IPOHE ([18]; 60 g/Ha): 90
- Herbicidal activity IPOHE ([18]; 125 g/Ha): 100
- Herbicidal activity IPOHE ([18]; 250 g/Ha): 100
- Herbicidal activity IPOHE ([18]; 500 g/Ha): 100
